In patent publication US20220395496A1 (Hoffmann-La Roche Inc., priority 2019, published 2022):

Target: T1, human TLR8 (Homo sapiens, UniProt Q9NR97)
T1 sequence (Q9NR97 27-1041): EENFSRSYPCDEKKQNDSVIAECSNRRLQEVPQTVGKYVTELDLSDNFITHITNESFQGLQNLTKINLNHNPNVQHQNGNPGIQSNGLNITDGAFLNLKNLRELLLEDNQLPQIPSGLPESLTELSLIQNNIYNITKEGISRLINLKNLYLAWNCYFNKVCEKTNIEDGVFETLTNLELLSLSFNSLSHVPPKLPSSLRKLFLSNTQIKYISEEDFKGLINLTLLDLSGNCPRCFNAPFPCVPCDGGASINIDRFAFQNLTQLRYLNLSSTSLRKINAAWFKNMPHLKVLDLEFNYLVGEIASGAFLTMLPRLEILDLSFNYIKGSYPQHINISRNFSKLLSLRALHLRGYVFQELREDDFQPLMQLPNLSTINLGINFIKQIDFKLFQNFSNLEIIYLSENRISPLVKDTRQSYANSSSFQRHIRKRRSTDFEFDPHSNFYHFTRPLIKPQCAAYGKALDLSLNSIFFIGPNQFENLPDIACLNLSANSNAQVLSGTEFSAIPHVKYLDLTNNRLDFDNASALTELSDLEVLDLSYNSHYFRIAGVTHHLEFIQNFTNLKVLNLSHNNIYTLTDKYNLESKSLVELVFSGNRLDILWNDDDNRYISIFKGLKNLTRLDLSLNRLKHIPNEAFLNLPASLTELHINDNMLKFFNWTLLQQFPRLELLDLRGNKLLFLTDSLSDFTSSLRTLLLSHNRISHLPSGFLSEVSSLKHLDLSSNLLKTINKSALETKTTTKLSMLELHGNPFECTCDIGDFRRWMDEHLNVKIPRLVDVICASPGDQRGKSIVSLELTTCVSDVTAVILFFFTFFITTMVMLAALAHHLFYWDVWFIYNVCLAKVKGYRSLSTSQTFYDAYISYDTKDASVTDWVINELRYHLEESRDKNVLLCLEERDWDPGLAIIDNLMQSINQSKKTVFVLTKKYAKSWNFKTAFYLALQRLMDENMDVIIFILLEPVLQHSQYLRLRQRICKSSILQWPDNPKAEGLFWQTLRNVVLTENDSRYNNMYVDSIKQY
Test: HEK293-Blue-hTLR-8 cells assay (SEAP reporter, R848 stimulation)
Format: cell-based
Conditions: HEK293-Blue-hTLR8 cells, R848, 20 hrs; lowest tested concentration 0.0032
Description: The following tests were carried out in order to determine the activity of the compounds of this invention in HEK293-Blue-hTLR-7/8/9 cells assay.
HEK293-Blue-hTLR-8 Cells Assay:
A stable HEK293-Blue-hTLR-8 cell line was purchased from InvivoGen (Cat. #: hkb-htlr8, San Diego, Calif., USA). These cells were originally designed for studying the stimulation of human TLR8 by monitoring the activation of NF-κB. A SEAP (secreted embryonic alkaline phosphatase) reporter gene was placed under the control of the IFN-β minimal promoter fused to five NF-κB and AP-1-binding sites. The SEAP was induced by activating NF-κB and AP-1 via stimulating HEK-Blue hTLR8 cells with TLR8 ligands. Therefore the reporter expression was declined by TLR8 antagonist under the stimulation of a ligand, such as R848, for incubation of 20 hrs. The cell culture supernatant SEAP reporter activity was determined using QUANTI-Blue™kit (Cat. #: rep-qb1, Invivogen, San Diego, Calif., USA) at a wavelength of 640 nm, a detection medium that turns purple or blue in the presence of alkaline phosphatase.
HEK293-Blue-hTLR8 cells were incubated at a density of […] cells/mL in a volume of 170 μL in a 96-well plate in Dulbecco's Modified Eagle's medium (DMEM) containing 4.5 g/L glucose, 50 U/mL penicillin, […], […], 2 mM L-glutamine, 10% (v/v) heat-inactivated fetal bovine serum with addition of 20 μL test compound in a serial dilution in the presence of final DMSO at 1% and 10 μL of 60 uM R848 in above DMEM, perform incubation under 37° C. in a CO2 incubator for 20 hrs. Then 20 μL of the supernatant from each well was incubated with 180 μL Quanti-blue substrate solution at 37° C. for 2 hrs and the absorbance was read at 620˜655 nm using a spectrophotometer. The signalling pathway that TLR8 activation leads to downstream NF-κB activation has been widely accepted, and therefore similar reporter assay was modified for evaluating TLR8 antagonist.

| IC50 [nM] | Structure (SMILES) |
| --- | --- |
| < 3.2 | C[C@H]1C[C@@H](NCc2cnc(N3CCN[C@@H](C)C3)nc2)CN(c2ccc(C#N)c3ncccc23)C1 [Example 29, 5-[(3S,5R)-3-methyl-5-[[2-[(3S)-3-methylpiperazin-1-yl]pyrimidin-5-yl]methylamino]-1-piperidyl]quinoline-8-carbonitrile] |
| < 3.2 | C[C@H]1C[C@@H](NCc2ccc3c(n2)CCNC3)CN(c2ccc(C#N)c3ncccc23)C1 [Example 30, 5-[(3S,5R)-3-methyl-5-(5,6,7,8-tetrahydro-1,6-naphthyridin-2-ylmethylamino)-1-piperidyl]quinoline-8-carbonitrile] |
| < 3.2 | C[C@H]1C[C@@H](NCc2cnc(N3CCNCC3)cn2)CN(c2ccc(C#N)c3ncccc23)C1 [Example 31, 5-[(3S,5R)-3-methyl-5-[(5-piperazin-1-ylpyrazin-2-yl)methylamino]-1-piperidyl]quinoline-8-carbonitrile] |

| Structure (SMILES) | IC50 [nM] |
| --- | --- |
| C[C@H]1C[C@@H](NCc2ccccc2)CN(c2ccc(C#N)c3ncccc23)C1 [Example R1, reference compound] | 20 |
| C[C@H]1C[C@@H](N2Cc3ccccc3C2)CN(c2ccc(C#N)c3ncccc23)C1 [Example R2, reference compound] | 110 |
